Where a name gives a salt, the structure may show the parent alone.
Tests used:
naïve CD4+ T cells = experiment: Human regulatory T cell differentiation assay; type: cell-based; conditions: 6 days
Procedure: Peripheral blood mononuclear cells (PBMCs) from whole blood donated by health volunteers were separated by Ficoll-Paque gradient centrifugation and naïve CD4^+ T cells were subsequently isolated using magnet beads (EasySep™ Human Naïve CD4^+ T Cell Isolation Kit, Cambridge, MA). For regulatory T cell (Treg) differentiation assay, naïve CD4^+ T cells were cultured (1-10×10^4 cells) in CTS OpTmizer medium for 6 days and stimulated with 5 ng/ml TGF-β, 100 U/ml IL-2, and ImmunoCult™ Human […] T Cell Activator; Stemcell #10990) with/without our Compounds. Cell viability was determined using a viability dye (eBioscience Fixable Viability Dye eFluor 780: ThermoFisher 65-0865-14) at 1:500 dilution. The cells were gated for Treg, defined as Live, CD11c^−, CD14^−, CD19^−, CD8^−, CD4^+, CD3^+, CD25^+, FOXP3^+. Percent (%) Tregs were calculated as percentage of CD4^+, CD25^+, FOXP3^+ cells over total CD4 T cells. Statistical analysis was performed with GraphPad Prism Software Using One-Way ANOVA.

[1] = system: type II collagen arthritis; experiment: In vivo rheumatoid arthritis model (semi-established type II collagen arthritis); set-up: species or system Lewis rats; conditions: 10 mg/kg PO BID, rats
Procedure: A study was conducted to determine the efficacy of test articles dosed by the oral (PO) route for inhibition of the inflammation (paw swelling), cartilage destruction, and bone resorption that occurs in semi-established type II collagen arthritis in female Lewis rats. Rats (10 per group) were injected intradermally (ID) with porcine type II collagen to induce arthritis; one group of rats (4 per group) served as vehicle-treated naïve controls. […] Positive controls were treated PO, BID with the reference compound Tofacitinib citrate (10 mg/kg). The rats were euthanized for necropsy on study day 21 (animals #1-5 in each group, animals #1-2 in naïve group) or 22 (animals #6-10 in each group, animals #3-4 in naïve group). Efficacy evaluation was based on animal body weights (Table 9), daily ankle caliper measurements (FIG. 4), ankle diameter expressed as area under the curve (AUC) (Table 10), terminal hind paw weights (Table 11), histopathologic evaluation of hind paws (Ankle Inflammation score: Table 12, Ankle Pannus score: Table 13, Ankle Cartilage Damage score: Table 14, Ankle Bone Resorption score: Table 15, Ankle Periosteal Bone score: Table 16, Ankle Periosteal Bone Width: Table 17) and knees (Knee Inflammation score: Table 18, Knee Pannus score: Table 19, Knee Cartilage Damage score: Table 20, Knee Bone Resorption score: Table 21), and relative spleen to body weight ratio (Table 22). Terminal serum was analyzed by enzyme-linked immunosorbent assay (ELISA) for anti-type II collagen antibodies (IgG) (Table 23). […] Statistics were conducted using ordinary one-way ANOVA with Dunnett's multiple comparison correction in GraphPad Prism.

[2] = Assay 1. Stability in Simulated Gastric Fluid (SGF); type: in vitro ADME; conditions: SGF pH 1.6 with pepsin, 1 μM, 37° C.
Outline: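 Degradation rate from LC/MS of acetonitrile-quenched aliquots (T0, then regular intervals). Fresh SGF (pH 1.6 NaCl, FaSSIF powder, pepsin 0.1 mg/mL) held compound at 1 μM final, 37° C; 1 mM DMSO stock.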

[3] = Assay 2. Stability in Simulated Intestinal Fluid (SIF); type: in vitro ADME; conditions: SIF pH 6.7 with pancreatin, 1 μM, 37° C.
Outline: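 Degradation rates came from LC/MS of acetonitrile-quenched samples drawn at intervals, starting at T0. The medium was freshly made pH 6.7 FaSSIF containing pancreatin, and test compound was present at 1 µM while being shaken at 37 °C.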

[4] = Assay 3. In vitro Colonic Material Stability Assay; type: in vitro ADME; conditions: colonic material slurry, anaerobic, 1 or 10 μM

Q: What does the source list for `CC(=O)O` [Acetic acid, acetic acid]?
A: Cell viability % DMSO (naïve CD4+ T cells; 1 mM): = (90%> <110%: =); Cell viability % DMSO (naïve CD4+ T cells; 3 mM): = (90%> <110%: =)

Q: Which “Cell viability % DMSO” value (naïve CD4+ T cells; 100 uM) does the source give for `CC[C@H]1[C@@H](O)[C@@H]2[C@H](CC[C@]3(C)[C@@H]([C@H](C)CCC(=O)O)CC[C@@H]23)[C@@]2(C)CC[C@@H](O)C[C@@H]12` [Obeticholic acid] here?
A: Its value is “= (90%> <110%: =)”.

Q: With `C[C@@H](O)CCO` [(R)-1,3-Butanediol] as the compound, how does the “Cell viability % DMSO” value (naïve CD4+ T cells; 100 uM) read?
A: Its value is “= (90%> <110%: =)”.

Q: What about the “Cell viability % DMSO” value (naïve CD4+ T cells; 0.5 mM) of the same compound?
A: The value was “= (90%> <110%: =)”.

Q: With `C[C@@H]1CCN(C(=O)CC#N)C[C@@H]1N(C)c1ncnc2[nH]ccc12` [Tofacitinib citrate, reference compound] as the compound, how does the “Mean Ankle Diameter AUC (mm*day)” value [1] read?
A: Its value is 73.82 mm*day.

Q: And the “Mean Ankle Periosteal Bone width (um)” value [1]?
A: Its value is 0.00 um.

Q: And the “Mean Knee Inflammation score (0-5)” value [1]?
A: The value was 0.10.

Q: What about the “Mean Terminal hind paw weights” value [1] of the same compound?
A: The value was 1.4321 g.

Q: And the “Mean body weight change, day −1 to 21 (%)” value [1]?
A: Its value is 20.2%.

Q: What about the “Relative Spleen to Body Weight (Mean)” value [1] of the same compound?
A: The value was 0.1796.

Q: What about the “Mean Ankle Bone Resorption score (0-5)” value ([1]; 0 = normal, 5 = severe) of the same compound?
A: Its value is 0.00.

Q: What about the “Mean Ankle Cartilage Damage score (0-5)” value ([1]; 0 = normal, 5 = severe) of the same compound?
A: Its value is 0.00.

Q: And the “Mean Ankle Pannus score (0-5)” value ([1]; 0 = normal, 5 = severe)?
A: Its value is 0.00.

Q: What about the “Mean Ankle Periosteal Bone score (0-5)” value ([1]; 0 = normal, 5 = severe) of the same compound?
A: The value was 0.00.

Q: What about the “Mean Ankle inflammation score (0-5)” value ([1]; 0 = normal, 5 = severe) of the same compound?
A: Its value is 1.4321.

Q: And the “Mean Knee Bone Resorption score (0-5)” value ([1]; 0 = normal, 5 = severe)?
A: The value was 0.00.

Q: And the “Mean Knee Cartilage Damage score (0-5)” value ([1]; 0 = normal, 5 = severe)?
A: Its value is 0.00.

Q: What about the “Mean Knee Pannus score (0-5)” value ([1]; 0 = normal, 5 = severe) of the same compound?
A: The value was 0.00.

Q: And the “Serum IgG” value ([1]; terminal serum ELISA for anti-type II collagen antibodies)?
A: The value was 2524.70 µg/mL.

Q: For `CCCC(=O)O[C@@H]1[C@@H](OC(=O)CCC)[C@@H](OC)OC[C@H]1OC(=O)CCC` [Compound 71, (2S,3R,4S,5R)-4,5-bis(butanoyloxy)-2-methoxyoxan-3-yl butanoate], which “Assay 1 (SGF) (% Remaining @ 1 hour)” value [2] is on record?
A: Its value is “B (25-75% of the tested compound remaining)”.

Q: What about the “Assay 2 (SIF) (% @ Remaining 4 hours)” value [3] of the same compound?
A: The value was “A (<25% of the tested compound remaining)”.

Q: And the “Assay 3 (% Remaining at 24 h)” value [4]?
A: The value was “A (<25% of the tested compound remaining)”.

Q: Which “Assay 1 (SGF) (% Remaining @ 1 hour)” value [2] does the source give for `CCCC(=O)O[C@@H]1[C@@H](OC(=O)CCC)[C@H](Oc2ccccc2C(=O)O)OC[C@H]1OC(=O)CCC` [Compound 186, 2-{[(2S,3R,4S,5R)-3,4,5-tris(butanoyloxy)oxan-2-yl]oxy}benzoic acid] here?
A: The value was “C (>75% of the tested compound remaining)”.

Q: And the “Assay 2 (SIF) (% @ Remaining 4 hours)” value [3]?
A: The value was “A (<25% of the tested compound remaining)”.

Q: And the “Assay 3 (% Remaining at 24 h)” value [4]?
A: Its value is “A (<25% of the tested compound remaining)”.
